Data: patent US20110319362A1, “STAT3 LIGANDS AND THERAPEUTIC USES THEREOF” (priority 2008, published 2011)
Read-outs that look alike come from different tables or passages of the source.

What was measured:
STAT3 protein = target: T1, STAT3 protein (Homo sapiens, UniProt P40763); experiment: In vitro competitive STAT3 binding assay (fluorescence polarization)
T1 construct: human STAT3 protein (residues 122-722) fused to His-tag; His-tag
Description: To quantitatively determine the binding affinities of STAT3 inhibitors to STAT3 protein, a sensitive and quantitative in vitro binding assay was developed based upon fluorescence polarization (FP) method. For this FP assay, 5-carboxyfluorescein (5-Fam) was coupled to a phosphopeptide (phospho-Tyr-Leu-Pro-Gln-Thr-Val-amide) with two beta-alanine and one glycine residues as the spacer between 5-Fam and the phosphopeptide to obtain 5-Fam-beta-Ala-beta-Ala-Gly-phospho-Tyr-Leu-Pro-Gln-Thr-Val-amide as the fluorescently tagged tracer, which was named as STT2 peptide. […] The recombinant human STAT3 protein (residues 122-722) fused to His-tag was stable and soluble.
Competitive binding experiments were carried out using 150 nM of STAT3 protein and 5 nM of STT2 peptide with different concentrations of a tested STAT3 inhibitor. For each experiment, two controls were included. One control contained STAT3 protein and STT2 peptide, and the second control contained STT2 peptide only. The polarization values were measured after 2-3 hours of incubation using an ULTRA READER (Tecan U.S. Inc., Research Triangle Park, N.C.). IC50 values, the inhibitor concentration at which 50% of the fluorescently tagged STT2 peptide is displaced by STAT3 inhibitors, was determined from a plot using nonlinear least-squares analysis using GRAPHPAD PRISM software (GraphPad Software, Inc., San Diego, Calif.). […]

[1] = test system: MDA-MB-231 cancer cell line; experiment: Cell growth assay (WST-8); format: cell-based; settings: Homo sapiens, MDA-MB-231, 96 h; WST-8, 4 days; read-out: Inhibition of cell growth IC50, MDA-MB-231 cancer cell line
Method: (§1) The effect of STAT3 compounds on cell growth was evaluated by a WST-8 [2-(2-methoxy-4-nitrophenyl)-3-(4-nitrophenyl)-5-(2,4-disulfophenyl)-2H-tetrazolium, monosodium salt assay (Dojindo Molecular Technologies, Inc). Cells (3000-4000 cells in each well) were cultured in 96-well tissue culture plates in medium (200 μL) containing various concentrations of STAT3 compounds for 4 days. At the end of incubation, WST-8 dye (20 μL) was added to each well and incubated for an additional 1-3 h, and then the absorbance was measured in a microplate reader (Molecular Devices) at 450 nm. Cell growth inhibition was evaluated as the ratio of the absorbance of the sample to that of the control.

[2] = test system: MDA-MB-468 cancer cell line; experiment: Cell growth assay (WST-8); format: cell-based; settings: Homo sapiens, MDA-MB-468, 96 h; WST-8, 4 days; read-out: Inhibition of cell growth IC50, MDA-MB-468 cancer cell line
Method: as §1

[3] = FP competitive binding, fluorescently tagged STT2 peptide tracer, read-out: Binding affinities to STAT3 IC50

T1 sequence (P40763 122-722): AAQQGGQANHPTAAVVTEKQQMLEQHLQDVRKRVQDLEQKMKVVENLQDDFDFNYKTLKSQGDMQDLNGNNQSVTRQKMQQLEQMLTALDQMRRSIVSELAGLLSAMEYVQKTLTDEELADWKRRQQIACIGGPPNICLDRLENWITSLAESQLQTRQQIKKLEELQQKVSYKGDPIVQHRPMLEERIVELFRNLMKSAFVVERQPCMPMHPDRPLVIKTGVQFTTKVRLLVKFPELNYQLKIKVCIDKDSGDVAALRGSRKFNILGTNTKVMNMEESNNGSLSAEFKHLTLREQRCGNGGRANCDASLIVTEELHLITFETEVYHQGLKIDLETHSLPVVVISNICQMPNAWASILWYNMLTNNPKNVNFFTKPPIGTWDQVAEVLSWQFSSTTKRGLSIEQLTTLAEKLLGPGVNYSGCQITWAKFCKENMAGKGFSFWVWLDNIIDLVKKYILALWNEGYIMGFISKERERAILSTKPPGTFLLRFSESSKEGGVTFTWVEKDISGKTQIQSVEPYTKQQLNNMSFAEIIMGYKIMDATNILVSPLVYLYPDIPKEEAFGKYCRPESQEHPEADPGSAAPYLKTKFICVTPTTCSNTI

| Compound | IC50 (STAT3 protein) [µM] | IC50 [1] [µM] | IC50 [2] [µM] | IC50 (STAT3 protein; [3]) [µM] |
| --- | --- | --- | --- | --- |
| NC(=O)CC[C@H](NC(=O)[C@@H]1CC[C@@H]2CCCC[C@H](NC(=O)[C@@H](N)Cc3ccc(CP(=O)(O)O)cc3)C(=O)N21)C(=O)NCc1ccccc1 [Example 29] | < 30 | > 100 | > 100 | – |
| CCOC(=O)COc1ccc(C[C@H](NC(C)=O)C(=O)N[C@H]2CCCCC3CC[C@@H](C(=O)N[C@@H](CCC(N)=O)C(=O)NCc4ccccc4)N3C2=O)cc1 (stereo partly drawn) | – | > 100 | > 100 | > 100 |
| N[C@@H](Cc1ccc(CP(=O)(O)O)cc1)C(=O)N[C@H]1CCCC[C@H]2CC[C@@H](C(=O)N[C@@H](Cc3c[nH]cn3)C(=O)NCc3ccccc3)N2C1=O [Example 26] | – | > 100 | > 100 | > 10 |
| CNC(=O)[C@H](CCCN)NC(=O)[C@@H]1CC[C@@H]2CCCC[C@H](NC(=O)[C@H](Cc3ccc(OP(=O)(O)O)cc3)NC(=O)OCc3ccccc3)C(=O)N21 [Example 21] | < 10 | > 100 | > 100 | – |
| N=C(N)NCCC[C@H](NC(=O)[C@@H]1CC[C@@H]2CCCC[C@H](NC(=O)[C@H](Cc3ccc(OP(=O)(O)O)cc3)NC(=O)OCc3ccccc3)C(=O)N21)C(=O)NCc1ccccc1 [Example 11] | > 5 | > 50 | > 100 | – |
| NC(=O)CC[C@H](NC(=O)[C@@H]1CCC2CCNC[C@H](NC(=O)[C@@H](N)Cc3ccc(OP(=O)(O)O)cc3)C(=O)N21)C(=O)NCc1ccccc1 (stereo partly drawn) | < 100 | > 100 | > 100 | – |
| CN(C)CCCCNC(=O)[C@@H]1CCC2CCCC[C@H](NC(=O)[C@H](Cc3ccc(OP(=O)(O)O)cc3)NC(=O)OCc3ccccc3)C(=O)N21 (stereo partly drawn) | – | > 100 | > 100 | < 30 |
| NC(=O)CC[C@H](NC(=O)[C@@H]1CC[C@@H]2CCCC[C@H](NC(=O)CCc3ccc(O)c(C(=O)O)c3)C(=O)N21)C(=O)NCc1ccccc1 [Example 24] | – | > 100 | > 100 | > 100 |
| CN(C)[C@@H](Cc1ccc(OCP(=O)(O)O)cc1)C(=O)NC1CCCC[C@H]2CC[C@@H](C(=O)N[C@@H](Cc3c[nH]cn3)C(=O)NCc3ccccc3)N2C1=O (stereo in doubt) [Example 33] | – | > 100 | > 100 | > 100 |
| CNC(=O)[C@H](CCC(N)=O)NC(=O)[C@@H]1CC[C@@H]2CCCC[C@H](NC(=O)[C@H](Cc3ccc(OP(=O)(O)O)cc3)NC(=O)OCc3ccccc3)C(=O)N21 [Example 13] | < 1 | > 100 | > 100 | – |
| CN[C@@H](Cc1ccc(OCP(=O)(O)O)cc1)C(=O)NC1CCCC[C@H]2CC[C@@H](C(=O)N[C@@H](Cc3c[nH]cn3)C(=O)NCc3ccccc3)N2C1=O (stereo in doubt) [Example 35] | – | > 100 | > 100 | < 100 |
| CCCCCCCCCCCCCCCC(=O)N[C@@H](Cc1ccc(OP(=O)(O)O)cc1)C(=O)NC1CCCC[C@H]2CC[C@@H](C(=O)N[C@@H](CCC(N)=O)C(=O)NCc3ccccc3)N2C1=O (stereo partly drawn) [Example 37] | < 10 | < 50 | < 50 | – |
| NCCOCCOCCOCCOCCC(=O)N[C@@H](Cc1ccc(OP(=O)(O)O)cc1)C(=O)N[C@H]1CCCCC2CC[C@@H](C(=O)N[C@@H](CCC(N)=O)C(=O)NCc3ccccc3)N2C1=O (stereo partly drawn) | – | > 100 | > 100 | < 5 |
| N[C@@H](Cc1ccc(OP(=O)(O)O)cc1)C(=O)N[C@H]1CCCCC2CC[C@@H](C(=O)N[C@@H](CCC(=O)NC(c3ccccc3)(c3ccccc3)c3ccccc3)C(=O)NCc3ccccc3)N2C1=O (stereo partly drawn) | – | < 10 | < 10 | < 10 |
| NC(=O)CC[C@H](NC(=O)[C@@H]1CC[C@@H]2CCCC[C@H](NC(=O)[C@H](Cc3ccc(OP(=O)(O)O)cc3)NC(=O)CCc3ccccc3)C(=O)N21)C(=O)NCc1ccccc1 [Example 2] | < 1 | > 20 | > 100 | – |
| CC(C)(C)OC(=O)CCc1ccc(CCC(=O)N[C@H]2CCCC[C@H]3CC[C@@H](C(=O)NCC[C@H](O)CO)N3C2=O)cc1 [Example 3] | – | > 30 | > 100 | > 100 |
| CC(=O)N[C@@H](Cc1ccc(O)cc1)C(=O)N[C@H]1CCCC[C@H]2CC[C@@H](C(=O)N[C@@H](CCC(N)=O)C(=O)NCc3ccccc3)N2C1=O [Example 6] | – | > 100 | > 100 | > 100 |
| NC(=O)CC[C@H](NC(=O)[C@@H]1CCC2CCCC[C@H](NC(=O)[C@H](Cc3ccc(OP(=O)(O)O)cc3)NC(=O)OCc3ccccc3)C(=O)N21)C(=O)NCc1ccccc1 (stereo in doubt) [Example 41] | < 1 | > 50 | > 100 | – |
| CN(C)[C@@H](Cc1ccc(OP(=O)(O)O)cc1)C(=O)N[C@H]1CCCCC2CC[C@@H](C(=O)N[C@@H](CNC(=N)N)C(=O)NCc3ccccc3)N2C1=O (stereo partly drawn) | – | > 50 | > 100 | < 100 |
| NCCCCNC(=O)[C@@H]1CC[C@@H]2CCCC[C@H](NC(=O)[C@H](Cc3ccc(OP(=O)(O)O)cc3)NC(=O)OCc3ccccc3)C(=O)N21 [Example 14] | – | > 100 | > 100 | < 10 |
| CCCNC(=O)[C@@H]1CC[C@@H]2CCCC[C@H](NC(=O)[C@H](Cc3ccc(OP(=O)(O)O)cc3)NC(=O)OCc3ccccc3)C(=O)N21 [Example 15] | – | > 30 | > 100 | < 30 |
| CC(=O)N[C@@H](Cc1ccc(CP(=O)(O)O)cc1)C(=O)N[C@H]1CCCC[C@H]2CC[C@@H](C(=O)N[C@@H](CCC(N)=O)C(=O)NCc3ccccc3)N2C1=O [Example 30] | < 30 | > 100 | > 100 | – |
| NC(=O)CC[C@H](NC(=O)[C@@H]1CC[C@@H]2CCCC[C@H](NC(=O)CCc3ccc(CP(=O)(O)O)cc3)C(=O)N21)C(=O)NCc1ccccc1 [Example 25] | – | > 100 | > 100 | > 100 |
| NC(=O)CC[C@H](NC(=O)[C@@H]1CCC2CCCC[C@H](NC(=O)CCc3ccc(OP(=O)(O)O)cc3)C(=O)N21)C(=O)NCc1ccccc1 (stereo partly drawn) | < 5 | > 100 | > 100 | – |
| CC(=O)N[C@@H](Cc1ccc(OC(C(=O)O)C(=O)O)cc1)C(=O)N[C@H]1CCCCC2CC[C@@H](C(=O)N[C@@H](CCC(N)=O)C(=O)NCc3ccccc3)N2C1=O (stereo partly drawn) | – | > 50 | > 100 | < 10 |
| CCCCCCCCCCCCCCCCN1CCN(CCC(=O)N[C@@H](Cc2ccc(OP(=O)(O)O)cc2)C(=O)N[C@H]2CCCCC3CC[C@@H](C(=O)NCCN4CCNC4=O)N3C2=O)CC1 (stereo partly drawn) | – | < 30 | < 20 | < 5 |
| CN(C)C(=O)CCCNC(=O)[C@@H]1CC[C@@H]2CCCC[C@H](NC(=O)[C@H](Cc3ccc(OP(=O)(O)O)cc3)NC(=O)OCc3ccccc3)C(=O)N21 [Example 18] | – | > 100 | > 100 | < 30 |
| CNCCCNC(=O)[C@@H]1CC[C@@H]2CCCC[C@H](NC(=O)[C@H](Cc3ccc(OP(=O)(O)O)cc3)NC(=O)OCc3ccccc3)C(=O)N21 [Example 19] | – | > 100 | > 100 | < 100 |
